US10736822B2, “Root canal treatment material and root canal treatment kit” (FUJIFILM Corporation, priority 2016, dated 2020)

Assay: Evaluation of curability under moist environment (distilled water added, Vicat needle)
Type: physicochemical
Settings: conclusion in words from Table 1
Description: The curability of each of the root canal treatment materials according to the examples and the comparative examples was evaluated through the following method. First, a cylindrical mold having an inner diameter of 5 mm and a height of 1 mm was filled with each of the root canal treatment materials which was then subjected to light irradiation with a light irradiator (“G-Light Prima II Plus” manufactured by GC) for 40 seconds to produce a test piece. […] A needle mark was visually checked and evaluated according to the following criteria.
The curability of each of the root canal treatment materials according to the examples and the comparative examples was evaluated in a moist environment through the following method. First, 15 μL of distilled water was added to 0.15 g of each of the root canal treatment materials which was then subjected to light irradiation with the light irradiator (“G-Light Prima II Plus” manufactured by GC) for 20 seconds to produce a test piece. The curability of each of the obtained test pieces was evaluated in the same manner as in <Evaluation of Curability> described above.

## C=CC(=O)NCCCOCC(COCCCNC(=O)C=C)(COCCCNC(=O)C=C)NC(=O)C=C [compound (I)]
  curability in a moist environment: particularly excellent curability in a moist environment
